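Five concentrations, 48 hours, 96-well plates. Abbreviation: GI50, concentration required for 50% inhibition of growth. The concentration for full growth arrest is given as TGI.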
Legend:
Assay in all cases: NCI tumour cell line growth inhibition, 48 h
786-0 renal = test system: 786-0 renal
A498 renal = test system: A498 renal
A549 NSCLC = test system: A549 NSCLC
ACHN renal = test system: ACHN renal
BT-549 breast = test system: BT-549 breast
CAKI-1 renal = test system: CAKI-1 renal
CCRF-CEM leukemia = test system: CCRF-CEM leukemia
COLO 205 colon = test system: COLO 205 colon
DU-145 prostate = test system: DU-145 prostate
HCC-2998 colon = test system: HCC-2998 colon
HCT-116 colon = test system: HCT-116 colon
HCT-15 colon = test system: HCT-15 colon
HL-60(TB) leukemia = test system: HL-60(TB) leukemia
HOP-62 NSCLC = test system: HOP-62 NSCLC
HOP-92 NSCLC = test system: HOP-92 NSCLC
HS 578T breast = test system: HS 578T breast
IGROV1 ovarian = test system: IGROV1 ovarian
K-562 leukemia = test system: K-562 leukemia
KM12 colon = test system: KM12 colon
LOX IMVI melanoma = test system: LOX IMVI melanoma
M14 melanoma = test system: M14 melanoma
MALME-3M melanoma = test system: MALME-3M melanoma
MCF7 breast = test system: MCF7 breast
MDA-MB-231 breast = test system: MDA-MB-231 breast
MDA-MB-435 = test system: MDA-MB-435
MOLT-4 leukemia = test system: MOLT-4 leukemia
NCI-H226 lung = test system: NCI-H226 lung
NCI-H23 lung = test system: NCI-H23 lung
NCI-H460 lung = test system: NCI-H460 lung
NCI-H522 lung = test system: NCI-H522 lung
NCI/ADR-RES ovarian = test system: NCI/ADR-RES ovarian
OVCAR-3 ovarian = test system: OVCAR-3 ovarian
OVCAR-5 ovarian = test system: OVCAR-5 ovarian
OVCAR-8 ovarian = test system: OVCAR-8 ovarian
PC-3 prostate = test system: PC-3 prostate
RPMI-8226 leukemia = test system: RPMI-8226 leukemia
RXF 393 renal = test system: RXF 393 renal
SF-268 CNS = test system: SF-268 CNS
SF-295 CNS = test system: SF-295 CNS
SF-539 CNS = test system: SF-539 CNS
SK-MEL-2 melanoma = test system: SK-MEL-2 melanoma
SK-MEL-28 melanoma = test system: SK-MEL-28 melanoma
SK-MEL-5 melanoma = test system: SK-MEL-5 melanoma
SK-OV-3 ovarian = test system: SK-OV-3 ovarian
SN12C renal = test system: SN12C renal
SNB-19 CNS = test system: SNB-19 CNS
SNB-75 CNS = test system: SNB-75 CNS
SR leukemia = test system: SR leukemia
SW-620 colon = test system: SW-620 colon
T-47D breast = test system: T-47D breast
TK-10 renal = test system: TK-10 renal
UACC-257 melanoma = test system: UACC-257 melanoma
UACC-62 melanoma = test system: UACC-62 melanoma
UO-31 renal = test system: UO-31 renal
EKVX NSCLC = test system: EKVX NSCLC
HT29 colon = test system: HT29 colon
OVCAR-4 ovarian = test system: OVCAR-4 ovarian
U251 CNS = test system: U251 CNS

## Nc1nc(N)c2c(n1)NC(c1sc(Cl)nc1Cl)CC(c1ccc3c(c1)OCO3)=N2 (configuration not stated)
786-0 renal
  GI50: 5.43 µM
  TGI: 24.8 µM
A498 renal
  GI50: 2.3 µM
  TGI: 12 µM
A549 NSCLC
  GI50: 6.47 µM
  TGI: > 100 µM
ACHN renal
  GI50: 5.86 µM
  TGI: 26.4 µM
BT-549 breast
  GI50: 3.79 µM
  TGI: 18.9 µM
CAKI-1 renal
  GI50: 3.17 µM
  TGI: > 100 µM
CCRF-CEM leukemia
  GI50: 3.02 µM
  TGI: 27 µM
COLO 205 colon
  GI50: 3.48 µM
  TGI: 12.7 µM
DU-145 prostate
  GI50: 8.45 µM
  TGI: 34.4 µM
HCC-2998 colon
  GI50: 6.11 µM
  TGI: 20 µM
HCT-116 colon
  GI50: 3.42 µM
  TGI: 16.2 µM
HCT-15 colon
  GI50: 1.07 µM
  TGI: 20 µM
HL-60(TB) leukemia
  GI50: 3.61 µM
  TGI: 13.3 µM
HOP-62 NSCLC
  GI50: 5.32 µM
  TGI: 22.3 µM
HOP-92 NSCLC
  GI50: 4.25 µM
  TGI: 23.8 µM
HS 578T breast
  GI50: 2.35 µM
  TGI: 31.1 µM
IGROV1 ovarian
  GI50: 10.4 µM
  TGI: 47.6 µM
K-562 leukemia
  GI50: 0.542 µM
  TGI: > 100 µM
KM12 colon
  GI50: 3.93 µM
  TGI: 21.4 µM
LOX IMVI melanoma
  GI50: 7.02 µM
  TGI: 25.5 µM
M14 melanoma
  GI50: 2.01 µM
  TGI: 13.7 µM
MALME-3M melanoma
  GI50: 14.3 µM
  TGI: 29.1 µM
MCF7 breast
  GI50: 2.81 µM
  TGI: 47.2 µM
MDA-MB-231 breast
  GI50: 5.81 µM
  TGI: 22.3 µM
MDA-MB-435
  GI50: 0.353 µM
  TGI: 11.6 µM
MOLT-4 leukemia
  GI50: 5.91 µM
  TGI: 41.9 µM
NCI-H226 lung
  GI50: 17.7 µM
  TGI: 55.7 µM
NCI-H23 lung
  GI50: 8.87 µM
  TGI: 38.2 µM
NCI-H460 lung
  GI50: 3.99 µM
  TGI: 18.1 µM
NCI-H522 lung
  GI50: 2.51 µM
  TGI: 13 µM
NCI/ADR-RES ovarian
  GI50: 3.55 µM
  TGI: 25.3 µM
OVCAR-3 ovarian
  GI50: 3.94 µM
  TGI: 17.4 µM
OVCAR-5 ovarian
  GI50: 6.03 µM
  TGI: 33 µM
OVCAR-8 ovarian
  GI50: 4.86 µM
  TGI: 46.9 µM
PC-3 prostate
  GI50: 5.15 µM
  TGI: 32.4 µM
RPMI-8226 leukemia
  GI50: 4.66 µM
  TGI: 25 µM
RXF 393 renal
  GI50: 1.4 µM
  TGI: 6.61 µM
SF-268 CNS
  GI50: 9.84 µM
  TGI: 30.2 µM
SF-295 CNS
  GI50: 2.21 µM
  TGI: 12.3 µM
SF-539 CNS
  GI50: 2.22 µM
  TGI: 8.24 µM
SK-MEL-2 melanoma
  GI50: 5.19 µM
  TGI: 19 µM
SK-MEL-28 melanoma
  GI50: 7.63 µM
  TGI: 29.2 µM
SK-MEL-5 melanoma
  GI50: 3.43 µM
  TGI: 13.3 µM
SK-OV-3 ovarian
  GI50: 2.78 µM
  TGI: 9.77 µM
SN12C renal
  GI50: 6.55 µM
  TGI: 22.3 µM
SNB-19 CNS
  GI50: 4.83 µM
  TGI: 48.2 µM
SNB-75 CNS
  GI50: 1.39 µM
  TGI: 7.55 µM
SR leukemia
  GI50: 1.9 µM
  TGI: 16.6 µM
SW-620 colon
  GI50: 2.98 µM
  TGI: 21.5 µM
T-47D breast
  GI50: 5.36 µM
  TGI: 64.1 µM
TK-10 renal
  GI50: 15 µM
  TGI: 44.2 µM
UACC-257 melanoma
  GI50: 14.6 µM
  TGI: 41.1 µM
UACC-62 melanoma
  GI50: 2.17 µM
  TGI: 18.9 µM
UO-31 renal
  GI50: 4.52 µM
  TGI: 24.5 µM

## Cc1c(Cl)c(C)c(Cc2c(C)c(Cl)c(C)c(Cl)c2O)c(O)c1Cl
786-0 renal
  GI50: 2.98 µM
  TGI: 9.84 µM
A498 renal
  GI50: 2.04 µM
  TGI: 6.35 µM
A549 NSCLC
  GI50: 4.07 µM
  TGI: 18.6 µM
ACHN renal
  GI50: 2.32 µM
  TGI: 6.88 µM
BT-549 breast
  GI50: 2.37 µM
  TGI: 8.33 µM
CAKI-1 renal
  GI50: 2.3 µM
  TGI: 9.77 µM
CCRF-CEM leukemia
  GI50: 2.57 µM
  TGI: 12.6 µM
COLO 205 colon
  GI50: 3.04 µM
  TGI: 9.24 µM
DU-145 prostate
  GI50: 4.83 µM
  TGI: 16.6 µM
EKVX NSCLC
  GI50: 2.64 µM
  TGI: 9.25 µM
HCC-2998 colon
  GI50: 3.8 µM
  TGI: 11.6 µM
HCT-116 colon
  GI50: 2.42 µM
  TGI: 10.5 µM
HCT-15 colon
  GI50: 2.32 µM
  TGI: 10.7 µM
HL-60(TB) leukemia
  GI50: 2.92 µM
  TGI: 11.2 µM
HOP-92 NSCLC
  GI50: 1.16 µM
  TGI: 4.74 µM
HS 578T breast
  GI50: 2.71 µM
  TGI: 9.55 µM
HT29 colon
  GI50: 3.84 µM
  TGI: 12.7 µM
IGROV1 ovarian
  GI50: 4.07 µM
  TGI: 19 µM
K-562 leukemia
  GI50: 2.21 µM
  TGI: 14.1 µM
KM12 colon
  GI50: 3.34 µM
  TGI: 11.4 µM
LOX IMVI melanoma
  GI50: 3.18 µM
  TGI: 10.5 µM
M14 melanoma
  GI50: 3.53 µM
  TGI: 14.4 µM
MALME-3M melanoma
  GI50: 2.33 µM
  TGI: 5.97 µM
MCF7 breast
  GI50: 2.14 µM
  TGI: 8.37 µM
MDA-MB-231 breast
  GI50: 2.38 µM
  TGI: 7.2 µM
MDA-MB-435
  GI50: 3.13 µM
  TGI: 11.1 µM
MOLT-4 leukemia
  GI50: 3.24 µM
  TGI: 13.4 µM
NCI-H226 lung
  GI50: 2.52 µM
  TGI: 10.7 µM
NCI-H23 lung
  GI50: 2.46 µM
  TGI: 8.79 µM
NCI-H460 lung
  GI50: 2.43 µM
  TGI: 10.2 µM
NCI-H522 lung
  GI50: 1.84 µM
  TGI: 11.2 µM
NCI/ADR-RES ovarian
  GI50: 3.09 µM
  TGI: 10.2 µM
OVCAR-3 ovarian
  GI50: 3.28 µM
  TGI: 11.2 µM
OVCAR-4 ovarian
  GI50: 2.99 µM
  TGI: 9.97 µM
OVCAR-5 ovarian
  GI50: 3.67 µM
  TGI: 14.4 µM
OVCAR-8 ovarian
  GI50: 3.73 µM
  TGI: 21.6 µM
PC-3 prostate
  GI50: 1.99 µM
  TGI: 11.8 µM
RPMI-8226 leukemia
  GI50: 1.18 µM
  TGI: 6.66 µM
RXF 393 renal
  GI50: 2 µM
  TGI: 6.89 µM
SF-268 CNS
  GI50: 3.4 µM
  TGI: 15.8 µM
SF-295 CNS
  GI50: 2.05 µM
  TGI: 5.08 µM
SF-539 CNS
  GI50: 3.01 µM
  TGI: 11.4 µM
SK-MEL-2 melanoma
  GI50: 2.85 µM
  TGI: 9.73 µM
SK-MEL-28 melanoma
  GI50: 3.14 µM
  TGI: 14 µM
SK-MEL-5 melanoma
  GI50: 1.28 µM
  TGI: 3.33 µM
SK-OV-3 ovarian
  GI50: 2.68 µM
  TGI: 9.46 µM
SN12C renal
  GI50: 2.46 µM
  TGI: 11.8 µM
SNB-19 CNS
  GI50: 3.15 µM
  TGI: 13.8 µM
SNB-75 CNS
  GI50: 2.27 µM
  TGI: 7.93 µM
SR leukemia
  GI50: 3.4 µM
  TGI: 12.4 µM
SW-620 colon
  GI50: 3.14 µM
  TGI: 13.5 µM
T-47D breast
  GI50: 2.11 µM
  TGI: 8.76 µM
TK-10 renal
  GI50: 3.79 µM
  TGI: 17.2 µM
U251 CNS
  GI50: 3.1 µM
  TGI: 10.9 µM
UACC-257 melanoma
  GI50: 3.52 µM
  TGI: 14.9 µM
UACC-62 melanoma
  GI50: 1.81 µM
  TGI: 6.84 µM
UO-31 renal
  GI50: 3.09 µM
  TGI: 11.6 µM

Reference: PubChem BioAssay (NCI)
